Measurements as given in patent US20070128217A1 (priority 2003, published 2007).

Tests used:
[1] = test system: antibodies in sera from SARS patients (sera 1a, 1b, 2, 6, 37, 62, London, SARS-yellow, SARS-green); assay type: binding, human; design: Binding of serum 6 to linear peptides of protein X1 of SARS-CoV Urbani / Binding of serum 37 to linear peptides of protein X1 of SARS-CoV Urbani / Binding of serum 6 to looped/cyclic peptide (PEPSCAN-ELISA) / Binding of serum 37 to looped/cyclic peptide (PEPSCAN-ELISA) / Binding of serum 37 to looped/cyclic peptides of protein X1 of SARS-CoV Urbani / Binding of serum 6 to linear peptides of protein X2 / Binding of serum 37 to linear peptides of protein X2 / Binding of serum 37 to looped/cyclic peptides of protein X2 of SARS-CoV Urbani / Binding of serum 6 to linear peptides of protein M of SARS-CoV Urbani / Binding of serum 37 to linear peptides of protein M of SARS-CoV Urbani / Binding of serum 6 to looped/cyclic peptides of protein M of SARS-CoV Urbani / Binding of serum 37 to looped/cyclic peptides of protein M of SARS-CoV Urbani / Binding of serum 6 to linear peptides of protein X3 of SARS-CoV Urbani / Binding of serum 37 to linear peptides of protein X3 of SARS-CoV Urbani / Binding of serum 37 to looped/cyclic peptides of protein X3 of SARS-CoV Urbani / Binding of serum 6 to linear peptides of protein X4 of SARS-CoV Urbani / Binding of serum 37 to linear peptides of protein X4 of SARS-CoV Urbani / Binding of serum 37 to looped/cyclic peptides of protein X4 of SARS-CoV Urbani / Binding of serum 6 to linear peptides of protein X5 of SARS-CoV Urbani / Binding of serum 37 to linear peptides of protein X5 of SARS-CoV Urbani / Binding of serum 37 to looped/cyclic peptides of protein X5 of SARS-CoV Urbani / Binding of serum 6 to linear peptides of protein N of SARS-CoV Urbani / Binding of serum 37 to linear peptides of protein N of SARS-CoV Urbani / Binding of serum 6 to linear peptide (PEPSCAN-ELISA) / Binding of serum 1a to looped/cyclic peptides of protein N of SARS-CoV Urbani / Binding of serum 1b to looped/cyclic peptides of protein N of SARS-CoV Urbani / Binding of serum 2 to looped/cyclic peptides of protein N of SARS-CoV Urbani / Binding of serum 6 to looped/cyclic peptides of protein N of SARS-CoV Urbani / Binding of serum 37 to looped/cyclic peptides of protein N of SARS-CoV Urbani / Binding of serum 62 to looped/cyclic peptides of protein N of SARS-CoV Urbani / Binding of serum London to looped/cyclic peptides of protein N of SARS-CoV Urbani / Binding of serum SARS-green to looped/cyclic peptides of protein N of SARS-CoV Urbani: unit not given here
[2] = test system: control sera (pooled serum of ten healthy LUMC hospital workers; commercial negative donor pooled serum from the Dutch bloodbank); assay type: binding, human; design: Binding of Control serum LUMC to linear peptides / Binding of Control serum Blood-bank to linear peptides / Binding of Control serum LUMC to looped peptides / Binding of Control Serum Blood-Bank to Looped peptides / Binding of Control serum LUMC to linear peptides of the protein M of SARS-CoV Urbani / Binding of Control serum Blood-bank to linear peptides of the protein M of SARS-CoV Urbani / Binding of Control serum LUMC to looped peptides of the protein M of SARS-CoV Urbani / Binding of Control Serum Blood-Bank to Looped peptides of the protein M of SARS-CoV Urbani: unit not given here
[3] = test system: rabbit serum obtained by immunizing a rabbit with the SARS-CoV strain Frankfurt 1; assay type: binding; design: Binding of a rabbit serum to linear peptides / Binding of a rabbit serum to looped peptides / Rabbit serum linear peptides / Rabbit serum looped peptides / Binding of a rabbit serum to linear peptides of protein N of SARS-CoV Urbani (Rabbit serum linear peptides) / Binding of a rabbit serum to looped/cyclic peptides of protein N of SARS-CoV Urbani (Rabbit serum looped peptides): unit not given here

Sequence: CADGTRHTYQLRARS
- Binding of serum 1a to linear peptides of protein X4 of SARS-CoV Urbani [1]: 0.6
- Binding of serum 1a to looped/cyclic peptides of protein X4 of SARS-CoV Urbani [1]: 0.7
- Binding of serum 1b to linear peptides of protein X4 of SARS-CoV Urbani [1]: 0.5
- Binding of serum 1b to looped/cyclic peptides of protein X4 of SARS-CoV Urbani [1]: 0.4
- Binding of serum 2 to linear peptides of protein X4 of SARS-CoV Urbani [1]: 0.5
- Binding of serum 2 to looped/cyclic peptides of protein X4 of SARS-CoV Urbani [1]: 0.8
- Binding of serum 6 to linear peptides of protein X4 of SARS-CoV Urbani [1]: 0.6
- Binding of serum 6 to looped/cyclic peptides of protein X4 of SARS-CoV Urbani [1]: 0.6
- Binding of serum 37 to linear peptides of protein X4 of SARS-CoV Urbani [1]: 0.7
- Binding of serum 37 to looped/cyclic peptides of protein X4 of SARS-CoV Urbani [1]: 0.7
- Binding of serum 62 to linear peptides of protein X4 of SARS-CoV Urbani [1]: 0.7
- Binding of serum 62 to looped/cyclic peptides of protein X4 of SARS-CoV Urbani [1]: 0.6
- Binding of serum London to linear peptides of protein X4 of SARS-CoV Urbani [1]: 0.8
- Binding of serum London to looped/cyclic peptides of protein X4 of SARS-CoV Urbani [1]: 0.3
- Binding of serum SARS-green to linear peptides of protein X4 of SARS-CoV Urbani [1]: 0.6
- Binding of serum SARS-green to looped/cyclic peptides of protein X4 of SARS-CoV Urbani [1]: 0.0
- Binding of serum SARS-yellow to linear peptides of protein X4 of SARS-CoV Urbani [1]: 0.7
- Binding of serum SARS-yellow to looped/cyclic peptides of protein X4 of SARS-CoV Urbani [1]: 0.6
- Binding of Control Serum Blood-Bank to Looped peptides [2]: 0.5
- Binding of Control serum Blood-bank to linear peptides [2]: 0.7
- Binding of Control serum LUMC to linear peptides [2]: 0.5
- Binding of Control serum LUMC to looped peptides [2]: 0.6
- Recognition of the peptide by the rabbit serum [3]: recognized

Sequence: KLVFLWLLWPVTLAC
- Binding of serum 1a to linear peptides of protein M of SARS-CoV Urbani [1]: 0.7
- Binding of serum 1a to looped/cyclic peptides of protein M of SARS-CoV Urbani [1]: 0.6
- Binding of serum 1b to linear peptides of protein M of SARS-CoV Urbani [1]: 0.6
- Binding of serum 1b to looped/cyclic peptides of protein M of SARS-CoV Urbani [1]: 0.2
- Binding of serum 2 to linear peptides of protein M of SARS-CoV Urbani [1]: 0.5
- Binding of serum 2 to looped/cyclic peptides of protein M of SARS-CoV Urbani [1]: 0.6
- Binding of serum 6 to linear peptides of protein M of SARS-CoV Urbani [1]: 0.4
- Binding of serum 6 to looped/cyclic peptides of protein M of SARS-CoV Urbani [1]: 0.7
- Binding of serum 37 to linear peptides of protein M of SARS-CoV Urbani [1]: 0.5
- Binding of serum 37 to looped/cyclic peptides of protein M of SARS-CoV Urbani [1]: 0.6
- Binding of serum 62 to linear peptides of protein M of SARS-CoV Urbani [1]: 0.5
- Binding of serum 62 to looped/cyclic peptides of protein M of SARS-CoV Urbani [1]: 0.6
- Binding of serum London to linear peptides of protein M of SARS-CoV Urbani [1]: 0.4
- Binding of serum London to looped/cyclic peptides of protein M of SARS-CoV Urbani [1]: 0.2
- Binding of serum SARS-green to linear peptides of protein M of SARS-CoV Urbani [1]: 0.4
- Binding of serum SARS-green to looped/cyclic peptides of protein M of SARS-CoV Urbani [1]: 0.3
- Binding of serum SARS-yellow to linear peptides of protein M of SARS-CoV Urbani [1]: 0.2
- Binding of serum SARS-yellow to looped/cyclic peptides of protein M of SARS-CoV Urbani [1]: 0.5
- Binding of Control Serum Blood-Bank to Looped peptides of the protein M of SARS-CoV Urbani [2]: 0.7
- Binding of Control serum Blood-bank to linear peptides of the protein M of SARS-CoV Urbani [2]: 0.7
- Binding of Control serum LUMC to linear peptides of the protein M of SARS-CoV Urbani [2]: 0.5
- Binding of Control serum LUMC to looped peptides of the protein M of SARS-CoV Urbani [2]: 0.6
- Rabbit serum linear peptides [3]: 0.1
- Rabbit serum looped peptides [3]: 0.0

Sequence: IENATFFIFNKLVKD
- Binding of serum 1a to linear peptides of protein X1 of SARS-CoV Urbani [1]: 0.6
- Binding of serum 1a to looped/cyclic peptides of protein X1 of SARS-CoV Urbani [1]: 0.5
- Binding of serum 1b to linear peptides of protein X1 of SARS-CoV Urbani [1]: 0.5
- Binding of serum 1b to looped/cyclic peptides of protein X1 of SARS-CoV Urbani [1]: 0.4
- Binding of serum 2 to linear peptides of protein X1 of SARS-CoV Urbani [1]: 0.5
- Binding of serum 2 to looped/cyclic peptides of protein X1 of SARS-CoV Urbani [1]: 0.4
- Binding of serum 6 to linear peptides of protein X1 of SARS-CoV Urbani [1]: 0.3
- Binding of serum 6 to looped/cyclic peptides of protein X1 of SARS-CoV Urbani [1]: 0.2
- Binding of serum 37 to linear peptides of protein X1 of SARS-CoV Urbani [1]: 0.5
- Binding of serum 37 to looped/cyclic peptides of protein X1 of SARS-CoV Urbani [1]: 0.5
- Binding of serum 62 to linear peptides of protein X1 of SARS-CoV Urbani [1]: 0.5
- Binding of serum 62 to looped/cyclic peptides of protein X1 of SARS-CoV Urbani [1]: 0.5
- Binding of serum London to linear peptides of protein X1 of SARS-CoV Urbani [1]: 0.2
- Binding of serum London to looped/cyclic peptides of protein X1 of SARS-CoV Urbani [1]: 0.2
- Binding of serum SARS-green to linear peptides of protein X1 of SARS-CoV Urbani [1]: 0.2
- Binding of serum SARS-green to looped/cyclic peptides of protein X1 of SARS-CoV Urbani [1]: 0.1
- Binding of serum SARS-yellow to linear peptides of protein X1 of SARS-CoV Urbani [1]: 0.4
- Binding of serum SARS-yellow to looped/cyclic peptides of protein X1 of SARS-CoV Urbani [1]: 0.3
- Binding of Control Serum Blood-Bank to Looped peptides [2]: 0.5
- Binding of Control serum Blood-bank to linear peptides [2]: 0.4
- Binding of Control serum LUMC to linear peptides [2]: 0.3
- Binding of Control serum LUMC to looped peptides [2]: 0.5
- Binding of a rabbit serum to linear peptides [3]: 0.1
- Binding of a rabbit serum to looped peptides [3]: 0.5
